One data set concerns the target T1, CYP2C9 (Homo sapiens, UniProt P11712).
T1 construct: a human liver microsome solution containing three CYP-specific substrates; from tissue; host or cells: human liver microsomes
Description: CYP inhibition test (1): inhibition rate (%) at one concentration, CYP2C9. The data set is classed as in vitro ADME. Conditions: human liver microsomes, pH 7.4, probe diclofenac (0.005 mmol/L); test compound 0.01 mmol/L, human liver microsome 0.1 mg/mL, substrate diclofenac, 37° C. 10 minutes; read-out: inhibition rate (%) 2C9. Here is the method:
A metabolic reaction was initiated by adding and mixing a test compound solution (final concentration 0.01 mmol/L) and a NADH/NADPH solution (final concentration 1 mmol/L) to a human liver microsome solution containing three CYP-specific substrates (final concentration 100 mmol/L potassium phosphate buffer solution (pH 7.4), 5 mmol/L magnesium chloride, 0.1 mg/mL human liver microsome, 0.005 mmol/L diclofenac (for CYP2C9), 0.01 mmol/L bufuralol (for […]), 0.005 mmol/L midazolam (for CYP3A4)). As an internal standard solution, a solution of each of stable isotopes of the metabolites (50 ng/mL [13C6] hydroxy diclofenac, 5 ng/mL [2H9] hydroxy bufuralol, and 5 ng/mL [13C6] hydroxy midazolam (all stable isotopes)) in methanol was prepared and used as a quenching solution.
Specifically, a metabolic reaction was initiated by adding and mixing 2 μL of a solution of a test compound in acetonitrile (or acetonitrile as a control) to 178 μL of a human liver microsome solution in ice water, followed by preincubation at 37° C. for 1 minute, and then adding 20 μL of a NADH/NADPH solution thereto. After incubation at 37° C. for 10 minutes, 50 μL of the reaction mixture was taken, and then it was added and mixed to 500 μL of a quenching solution to quech the reaction. The mixture was centrifuged (6130 g, 4° C., 10 minutes) and the supernatant was used as a sample for LC-MS/MS.
Peak area ratio ([peak area of metabolite]/[peak area of corresponding stable isotope]) was calculated for a metabolite and a stable isotope of the metabolite as measurement object. By comparing the peak area ratio of each test compound solution with that of the control, the inhibition rate (%) of each CYP species for each test compound was calculated from (1-[peak area ratio of each test compound solution]/[peak area ratio of control])×100.
Background: Liver microsomes are a subcellular fraction often used to study metabolism.

The next data set concerns the target T2, serotonin (5-HT) uptake (Rattus norvegicus, UniProt P31652).
T2 construct: used as crude synaptosomal fraction; from tissue; host or cells: rat frontal cortex, crude synaptosomal fraction
The experiment in a line: Serotonin (5-HT) uptake inhibitory activity in rat brain synaptosome. The data set is classed as biochemical. Conditions: rat frontal cortex synaptosome, tritium-labeled 5-HT 8 nM; read-out: IC50 (nM), serotonin (5-HT) uptake inhibition. As for the experimental part: Male Wistar rats were decapitated, each brain was removed, and the frontal cortex was cut out. […] The homogenate was centrifuged at 1000 g at 4° C. for 10 minutes, and the supernatant was further centrifuged at 20000 g at 4° C. for 20 minutes. The pellet was suspended in an incubation buffer (20 mM Hepes buffer (pH 7.4) containing 10 mM glucose, 145 mM sodium chloride, 4.5 mM potassium chloride, 1.2 mM magnesium chloride and 1.5 mM calcium chloride) and used as crude synaptosomal fraction.
(§1) Each well of a 96-well round-bottom plate was used for the uptake reaction in a total volume of 200 μL solution containing purgurin (final concentration 10 μM) and ascorbic acid (final concentration 0.2 mg/mL). In other words, solvent, unlabeled 5-HT or step-diluted test compound was added to each well, and one-tenth of the final volume of the synaptosomal fraction was added to each well, followed by pre-incubation at 37° C. for 10 minutes, and then tritium-labeled 5-HT solution (final concentration 8 nM) was added and the uptake reaction was initiated at 37° C. After 10 minutes, the uptake reaction was terminated by suction filtration onto a 96-well glass fiber filter plate. The filters were rinsed with cold physi-ological saline solution, dried thoroughly, and micro scintillation 0 (Perkin-Elmer) was added thereto. Then, the residual radioactivity on the filters was measured.
The uptake value when only solvent was added was set as 100%, the uptake value when unlabeled 5-HT (final concentration 10 μM) was added as 0% (nonspecific uptake value), and the 50% inhibitory concentration was calculated from the concentration of the test compound and its inhibitory activity.

Data set [1] deals with T3, norepinephrine (NE) uptake (Rattus norvegicus, UniProt Q63380).
T3 construct: used as crude synaptosomal fraction; from tissue; host or cells: rat hippocampus, crude synaptosomal fraction
T3 sequence (Q63380 1-617): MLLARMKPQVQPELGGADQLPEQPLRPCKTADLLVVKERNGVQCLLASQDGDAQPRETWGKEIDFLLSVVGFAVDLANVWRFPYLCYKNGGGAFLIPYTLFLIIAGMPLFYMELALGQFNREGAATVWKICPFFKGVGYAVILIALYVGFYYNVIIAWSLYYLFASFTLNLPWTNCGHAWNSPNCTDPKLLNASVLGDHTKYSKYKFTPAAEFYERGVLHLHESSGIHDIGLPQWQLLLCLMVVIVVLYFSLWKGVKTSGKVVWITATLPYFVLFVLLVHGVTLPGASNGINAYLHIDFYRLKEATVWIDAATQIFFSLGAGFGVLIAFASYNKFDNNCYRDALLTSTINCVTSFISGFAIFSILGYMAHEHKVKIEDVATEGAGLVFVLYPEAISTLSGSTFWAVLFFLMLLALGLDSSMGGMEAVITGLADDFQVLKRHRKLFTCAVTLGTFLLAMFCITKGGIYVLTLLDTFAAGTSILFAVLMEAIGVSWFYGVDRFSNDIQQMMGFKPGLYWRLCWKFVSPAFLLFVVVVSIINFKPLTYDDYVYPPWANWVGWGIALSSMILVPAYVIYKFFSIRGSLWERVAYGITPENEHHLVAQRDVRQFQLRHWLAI
The experiment in a line: Norepinephrine (NE) uptake inhibitory activity using rat brain synaptosome. The data set is classed as biochemical. The following applies: rat hippocampus synaptosome, tritium-labeled NE 12 nM; read-out: IC50 (nM), norepinephrine (NE) uptake inhibition. As for the experimental part:
Male Wistar rats were decapitated, each brain was removed, and the hippocampus was cut out. […] The homogenate was centrifuged at 1000 g at 4° C. for 10 minutes, and the supernatant was further centrifuged at 20000 g at 4° C. for 20 minutes. The pellet was suspended in an incubation buffer (20 mM Hepes buffer (pH 7.4) containing 10 mM glucose, 145 mM sodium chloride, 4.5 mM potassium chloride, 1.2 mM magnesium chloride and 1.5 mM calcium chloride) and used as crude synaptosomal fraction.
Each well of a 96-well round-bottom plate was used for the uptake reaction in a total volume of 200 μL solution containing purgurin (final concentration 10 μM) and ascorbic acid (final concentration 0.2 mg/mL).
After 10 minutes, the uptake reaction was terminated by suction filtration onto a 96-well glass fiber filter plate. The filters were rinsed with cold physi-ological saline solution, dried thoroughly, and micro scintillation 0 (Perkin-Elmer) was added thereto. Then, the residual radioactivity on the filters was measured.
The uptake value when only solvent was added was set as 100%, the uptake value when unlabeled NE (final concentration 10 μM) was added as 0% (nonspecific uptake value), and the 50% inhibitory concentration was calculated from the concentration of the test compound and its inhibitory activity.

The next data set deals with T4, dopamine (DA) uptake (Rattus norvegicus, UniProt P23977).
T4 construct: used as crude synaptosomal fraction; from tissue; host or cells: rat striatum, crude synaptosomal fraction
T4 sequence (P23977 whole entry): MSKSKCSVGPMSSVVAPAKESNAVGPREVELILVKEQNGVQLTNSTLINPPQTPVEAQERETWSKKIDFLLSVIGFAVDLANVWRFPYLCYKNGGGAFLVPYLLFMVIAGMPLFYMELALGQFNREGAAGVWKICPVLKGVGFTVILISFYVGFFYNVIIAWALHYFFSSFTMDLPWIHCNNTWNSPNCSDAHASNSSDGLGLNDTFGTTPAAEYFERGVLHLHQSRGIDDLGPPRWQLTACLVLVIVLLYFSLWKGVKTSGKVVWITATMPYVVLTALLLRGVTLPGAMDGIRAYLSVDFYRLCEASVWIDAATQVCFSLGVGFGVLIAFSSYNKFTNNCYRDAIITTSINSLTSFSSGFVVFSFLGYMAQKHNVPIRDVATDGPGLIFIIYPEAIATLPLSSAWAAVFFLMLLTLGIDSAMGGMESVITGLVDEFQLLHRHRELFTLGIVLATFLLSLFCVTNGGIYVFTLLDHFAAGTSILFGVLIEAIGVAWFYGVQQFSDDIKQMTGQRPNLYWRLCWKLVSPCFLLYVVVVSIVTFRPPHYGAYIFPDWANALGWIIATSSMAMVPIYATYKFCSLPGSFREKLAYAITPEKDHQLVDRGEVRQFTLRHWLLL
The experiment in a line: Dopamine (DA) uptake inhibitory activity using rat brain synaptosome. The data set is classed as biochemical. The following applies: rat striatum synaptosome, tritium-labeled DA 2 nM; read-out: IC50 (nM), dopamine (DA) uptake inhibition. Here is the method: Male Wistar rats were decapitated, each brain was removed, and the striatum was cut out. […] The homogenate was centrifuged at 1000 g at 4° C. for 10 minutes, and the supernatant was further centrifuged at 20000 g at 4° C. for 20 minutes. The pellet was suspended in an incubation buffer (20 mM Hepes buffer (pH 7.4) containing 10 mM glucose, 145 mM sodium chloride, 4.5 mM potassium chloride, 1.2 mM magnesium chloride and 1.5 mM calcium chloride) and used as crude synaptosomal fraction.
as §1, with “μl” for “μL”, “DA” for “5-HT”, “2” for “8”
The uptake value when only solvent was added was set as 100%, the uptake value when unlabeled DA (final concentration 10 μM) was added as 0% (nonspecific uptake value), and the 50% inhibitory concentration was calculated from the concentration of the test compound and its inhibitory activity.

Each structure is given as a SMILES string.

We go through 19 molecules from patent US20240409519A1, “HYDROGENATED QUINOXALINES” (OTSUKA PHARMACEUTICAL CO., LTD., priority 2021, published 2024).

As a reminder, the inhibition is the drop in the measured response relative to a control, in per cent. For orientation: IC50 means the concentration at which inhibition is half-maximal.

T1 sequence (P11712 whole entry): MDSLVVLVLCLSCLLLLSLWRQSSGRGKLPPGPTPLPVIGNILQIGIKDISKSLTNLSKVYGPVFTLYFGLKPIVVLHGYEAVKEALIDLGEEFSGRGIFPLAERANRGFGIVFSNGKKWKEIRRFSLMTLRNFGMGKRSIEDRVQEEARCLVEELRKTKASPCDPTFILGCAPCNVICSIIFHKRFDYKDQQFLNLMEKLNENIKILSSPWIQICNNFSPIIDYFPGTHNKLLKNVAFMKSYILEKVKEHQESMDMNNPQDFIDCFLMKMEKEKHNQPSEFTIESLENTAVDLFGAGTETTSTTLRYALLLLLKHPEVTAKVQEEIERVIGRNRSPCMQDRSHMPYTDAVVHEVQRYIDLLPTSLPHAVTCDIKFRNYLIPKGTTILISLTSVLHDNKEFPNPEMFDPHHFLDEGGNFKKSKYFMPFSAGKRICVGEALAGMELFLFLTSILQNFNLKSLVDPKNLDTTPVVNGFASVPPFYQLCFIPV
T2 sequence (P31652 whole entry): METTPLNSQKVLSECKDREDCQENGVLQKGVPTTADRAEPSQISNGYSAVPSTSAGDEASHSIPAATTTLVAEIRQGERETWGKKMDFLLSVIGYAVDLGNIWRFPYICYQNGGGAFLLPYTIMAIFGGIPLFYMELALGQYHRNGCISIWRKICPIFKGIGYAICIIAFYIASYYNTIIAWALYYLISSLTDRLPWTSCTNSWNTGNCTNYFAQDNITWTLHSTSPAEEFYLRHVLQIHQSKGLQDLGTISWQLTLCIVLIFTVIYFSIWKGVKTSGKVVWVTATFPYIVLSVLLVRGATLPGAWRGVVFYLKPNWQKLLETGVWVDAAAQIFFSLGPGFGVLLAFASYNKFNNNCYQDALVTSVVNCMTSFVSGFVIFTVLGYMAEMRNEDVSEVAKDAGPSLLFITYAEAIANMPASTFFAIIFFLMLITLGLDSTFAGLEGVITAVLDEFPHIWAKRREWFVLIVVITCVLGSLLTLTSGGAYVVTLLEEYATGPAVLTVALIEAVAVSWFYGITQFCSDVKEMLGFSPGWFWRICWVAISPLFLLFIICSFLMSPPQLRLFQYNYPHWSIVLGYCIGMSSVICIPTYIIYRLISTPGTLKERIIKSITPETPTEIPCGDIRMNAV

In the case of `CC1(C)CN(c2ccc(OCCO)c3occc23)[C@@H]2CCCC[C@@H]2N1` [Example 50], the inhibition at 10 min, 0.01 mmol/L on CYP2C9 was -7.6%. The results for the IC50 (on serotonin (5-HT) uptake; in data set [1]; at dopamine (DA) uptake) were 7.7 nM, 5.8 nM and 214 nM, respectively.

`CC1(C)CN(c2ccc(OCCO)c3occc23)[C@H]2CCCC[C@H]2N1` [Example 51]: the inhibition at 10 min, 0.01 mmol/L at CYP2C9 was -8.3%. In addition, the IC50 at serotonin (5-HT) uptake was 17 nM; in data set [1], 4.3 nM; on dopamine (DA) uptake it was 41.1 nM.

In the case of `CC1(C)CN(c2ccc(OCCO)c(F)c2)[C@H]2CCCC[C@H]2N1` [Example 52], the inhibition at 10 min, 0.01 mmol/L on CYP2C9 was 9.2%. Moreover, the results for the 50% inhibitory concentration (IC50) (at serotonin (5-HT) uptake; in data set [1]; at dopamine (DA) uptake) were 55 nM, 8.3 nM and 74.4 nM, respectively.

For `Cc1c(N2CC(C)(C)N[C@@H]3CCCC[C@@H]32)ccc(OC(F)(F)CO)c1F` [Example 57], the inhibition at 10 min, 0.01 mmol/L at CYP2C9 turned out to be 9.3%. Further, the values for the IC50 (at serotonin (5-HT) uptake; in data set [1]; on dopamine (DA) uptake) were 30.3 nM, 4.9 nM and 88 nM, respectively.

For `Cc1cc(N2CC(C)(C)N[C@@H]3CCCC[C@@H]32)cc(F)c1OC(F)(F)CO` [Example 58], at CYP2C9, the inhibition at 10 min, 0.01 mmol/L came to 2.8%. The IC50 on serotonin (5-HT) uptake amounted to 22.9 nM; in data set [1], 6.4 nM; on dopamine (DA) uptake, 58.4 nM.

Consider `CC1(C)CN(c2ccc(OC(F)(F)CO)cc2F)[C@H]2CCCC[C@H]2N1` [Example 61, 2-(4-((4aR,8aS)-3,3-dimethyloctahydroquinoxalin-1(2H)-yl)-3-fluorophenoxy)-2,2-difluoroethan-1-ol 1/2fumarate], for which the inhibition at 10 min, 0.01 mmol/L at CYP2C9 is 6.8%. Also, the IC50 on serotonin (5-HT) uptake was found to be 9 nM; in data set [1], 6.1 nM; at dopamine (DA) uptake it was 60.2 nM.

On to `CC1(C)CN(c2cc(Br)c(OCCO)cc2F)[C@H]2CCCC[C@H]2N1` [Example 62], for which, at CYP2C9, the inhibition at 10 min, 0.01 mmol/L turned out to be 4.6%. Moreover, the IC50 on serotonin (5-HT) uptake came to 8.6 nM; in data set [1], 6.9 nM; on dopamine (DA) uptake, 273 nM.

As to `CC1(C)CN(c2ccc(OCCO)c(Br)c2F)[C@H]2CCCC[C@H]2N1` [Example 63], the inhibition at 10 min, 0.01 mmol/L at CYP2C9 amounted to 1.1%. Further, the IC50 on serotonin (5-HT) uptake worked out at 5.1 nM; in data set [1], 3.6 nM; at dopamine (DA) uptake, 85.1 nM.

As for `CC1(C)CN(c2ccc(OCCO)cc2Cl)[C@H]2CCCC[C@H]2N1` [Example 64, 2-(3-chloro-4-((4aR,8aS)-3,3-dimethyloctahydroquinoxalin-1(2H)-yl)phenoxy)ethan-1-ol 1/2fumarate], at CYP2C9, the inhibition at 10 min, 0.01 mmol/L came out at 10.2%. The IC50 at serotonin (5-HT) uptake came out at 8.8 nM; in data set [1], 5.4 nM; on dopamine (DA) uptake, 78.9 nM.

As for `Cc1c(OC(F)(F)CO)ccc(N2CC(C)(C)N[C@H]3CCCC[C@H]32)c1F` [Example 69, 2-(4-((4aS,8aR)-3,3-dimethyloctahydroquinoxalin-1(2H)-yl)-3-fluoro-2-methylphenoxy)-2,2-difluoroethan-1-ol 1/2fumarate], the inhibition at 10 min, 0.01 mmol/L on CYP2C9 turned out to be 14.8%. The IC50 worked out at 5.7 nM at serotonin (5-HT) uptake, 3.4 nM in data set [1] and 91.4 nM on dopamine (DA) uptake.

Take `Cc1c(OC(F)(F)CO)ccc(N2CC(C)(C)N[C@@H]3CCCC[C@@H]32)c1F` [Example 70]: the inhibition at 10 min, 0.01 mmol/L at CYP2C9 came to 15.8%. Moreover, the IC50 at serotonin (5-HT) uptake came to 7 nM; in data set [1], 1 nM; at dopamine (DA) uptake it was 44.5 nM.

Regarding `CC1(C)CN(c2cc(F)c(OC(F)(F)CO)cc2F)[C@H]2CCCC[C@H]2N1` [Example 71], on CYP2C9, the inhibition at 10 min, 0.01 mmol/L came out at 0.6%. Further, the figures for the half-maximal inhibitory concentration (IC50) (on serotonin (5-HT) uptake; in data set [1]; on dopamine (DA) uptake) were 57 nM, 6.3 nM and 81.4 nM, respectively.

Consider `CC1(C)CN(c2cc(F)c(OCCO)cc2F)[C@H]2CCCC[C@H]2N1` [Example 72], for which, at CYP2C9, the inhibition at 10 min, 0.01 mmol/L was determined as 1.7%. For the same molecule, the IC50 on serotonin (5-HT) uptake came out at 55.4 nM; in data set [1], 7.9 nM; at dopamine (DA) uptake, 241 nM.

Turning to `CC1(C)CN(c2ccc(OC(F)(F)CO)c(F)c2F)[C@H]2CCCC[C@H]2N1` [Example 73], at CYP2C9, the inhibition at 10 min, 0.01 mmol/L turned out to be 4.8%. The IC50 on serotonin (5-HT) uptake stood at 8.7 nM; in data set [1], 2.4 nM; at dopamine (DA) uptake it was 68.7 nM.

Take `CC1(C)CN(c2cc(Cl)c(OC(F)(F)CO)cc2F)[C@H]2CCCC[C@@H]2N1` [Example 75]: the inhibition at 10 min, 0.01 mmol/L at CYP2C9 amounted to 9.1%. The figures for the IC50 (on serotonin (5-HT) uptake; in data set [1]; on dopamine (DA) uptake) were 9.4 nM, 9.7 nM and 35.3 nM, respectively.

Consider `CC1(C)CN(c2cc(Cl)c(OC(F)(F)CO)cc2F)[C@@H]2CCCC[C@H]2N1` [Example 76], for which the inhibition at 10 min, 0.01 mmol/L at CYP2C9 turned out to be 12.6%. The IC50 on serotonin (5-HT) uptake was determined as 98.3 nM; in data set [1], 8.8 nM; at dopamine (DA) uptake, 60.5 nM.

For the molecule `CC1(C)CN(c2cc(F)c(OC(F)(F)CO)cc2F)[C@H]2CCCC[C@@H]2N1` [Example 77], the inhibition at 10 min, 0.01 mmol/L at CYP2C9 worked out at 7.9%. Moreover, the IC50 on serotonin (5-HT) uptake was found to be 42.3 nM; in data set [1] it was 7.1 nM; on dopamine (DA) uptake, 205 nM.

Turning to `Cc1c(OC(F)(F)CO)ccc(N2CC(C)(C)N[C@H]3CCCC[C@@H]32)c1F` [Example 79], at CYP2C9, the inhibition at 10 min, 0.01 mmol/L was 8.9%. For the same molecule, the IC50 on serotonin (5-HT) uptake came out at 37.3 nM; in data set [1], 5.8 nM; at dopamine (DA) uptake, 224 nM.

With `CC1(C)CN(c2ccc(OC(F)(F)CO)c(Cl)c2F)[C@@H]2CCCC[C@H]2N1` [Example 80], on CYP2C9, the inhibition at 10 min, 0.01 mmol/L was determined as 2%. The values for the IC50 (on serotonin (5-HT) uptake; in data set [1]; at dopamine (DA) uptake) were 62.8 nM, 12.4 nM and 90 nM, respectively.
